According to patent US7786108B2, “Compounds and method for treating dyslipidemia” (Eli Lilly and Company, priority 2004, dated 2010):

Test system: transgenic mice that express both human CETP and human apolipoprotein A-1
Experiment: In vivo assay of plasma lipids: elevation of HDL cholesterol
Details: Mus musculus; single oral dose 30 mg/kg; HDL cholesterol in serum at 8 hr after administration; relative to a control; read-out: % HDL cholesterol increase
From the text: Additional serum lipids can be analyzed by enzymatic methods.

| Structure (SMILES) | change in vivo at 30 mg/kg |
| --- | --- |
| CC(C)OC(=O)N1CCCC(N(Cc2cc(C(F)(F)F)cc(C(F)(F)F)c2)c2nnn(C)n2)c2cc3c(cc21)CCC3 (racemic) [Example 50, (+/−)-9-[(3,5-Bis-trifluoromethyl-benzyl)-(2-methyl-2H-tetrazol-5-yl)-amino]-2,3,6,7,8,9-hexahydro-1H-5-aza-cyclohepta[f]indene-5-carboxylic acid isopropyl ester] | 127% |
| CCN1CCC[C@H](N(Cc2cc(C(F)(F)F)cc(C(F)(F)F)c2)c2nnn(C)n2)c2cc(C)c(C(F)(F)F)cc21 [Example 30, (S)-(3,5-Bis-trifluoromethyl-benzyl)-(1-ethyl-7-methyl-8-trifluoromethyl-2,3,4,5-tetrahydro-1H-benzo[b]azepin-5-yl)-(2-methyl-2H-tetrazol-5-yl)-amine] | 54% |
| Cc1cc2c(cc1C(F)(F)F)N(CC1CCCC1)CCC[C@@H]2N(Cc1cc(C(F)(F)F)cc(C(F)(F)F)c1)c1nnn(C)n1 [Example 3, (S)-(3,5-bistrifluoromethylbenzyl)-(1-cyclopentylmethyl-7-methyl-8-trifluoromethyl-2,3,4,5-tetrahydro-1H-benzo[b]azepin-5-yl)-(2-methyl-2H-tetrazol-5-yl)amine] | 71% |
| Cc1cc2c(cc1C(F)(F)F)N(C(=O)OC(C)C)CCC[C@@H]2N(Cc1cc(C(F)(F)F)cc(C(F)(F)F)c1)c1nnn(C)n1 [Example 16, (S)-5-[(3,5-Bis-trifluoromethyl-benzyl)-(2-methyl-2H-tetrazol-5-yl)-amino]-7-methyl-8-trifluoromethyl-2,3,4,5-tetrahydro-benzo[b]azepine-1-carboxylic acid isopropyl ester] | 82% |
| Cc1cc2c(cc1C(F)(F)F)N(Cc1ccncc1)CCC[C@@H]2N(Cc1cc(Cl)cc(Cl)c1)c1nnn(C)n1 [Example 187, (S)-(3,5-Dichloro-benzyl)-(7-methyl-1-pyridin-4-ylmethyl-8-trifluoromethyl-2,3,4,5-tetrahydro-1H-benzo[b]azepin-5-yl)-(2-methyl-2H-tetrazol-5-yl)-amine] | 124% |
| Cc1cc2c(c(C)c1C(F)(F)F)N(Cc1ccc(C(=O)O)cc1)CCC[C@@H]2N(Cc1cc(C(F)(F)F)cc(C(F)(F)F)c1)c1nnn(C)n1 [Example 202, (S)-4-{5-[(3,5-Bis-trifluoromethyl-benzyl)-(2-methyl-2H-tetrazol-5-yl)-amino]-7,9-dimethyl-8-trifluoromethyl-2,3,4,5-tetrahydro-benzo[b]azepin-1-ylmethyl}-benzoic acid] | 206% |
| Cc1c2c(cc3c1N(C[C@H]1CC[C@H](CC(=O)O)CC1)CCC[C@@H]3N(Cc1cc(C(F)(F)F)cc(C(F)(F)F)c1)c1nnn(C)n1)COC2 [Example 165, (S)-(4-{9-[(3,5-Bis-trifluoromethyl-benzyl)-(2-methyl-2H-tetrazol-5-yl)-amino]-4-methyl-1,3,6,7,8,9-hexahydro-2-oxa-5-aza-cyclohepta[f]inden-5-ylmethyl}-cyclohexyl)-acetic acid] | 177% |
| Cc1cc2c(cc1C(F)(F)F)N(Cc1ccncc1)CCC[C@@H]2N(Cc1cc(Cl)cc(C(F)(F)F)c1)c1nnn(C)n1 [Example 191, (S)-(3-Chloro-5-trifluoromethyl-benzyl)-(7-methyl-1-pyridin-4-ylmethyl-8-trifluoromethyl-2,3,4,5-tetrahydro-1H-benzo[b]azepin-5-yl)-(2-methyl-2H-tetrazol-5-yl)-amine] | 91% |
| Cc1c2c(cc3c1N(Cc1ccc(C(=O)O)cc1)CCC[C@@H]3N(Cc1cc(C(F)(F)F)cc(C(F)(F)F)c1)c1nnn(C)n1)COC2 [Example 166, (S)-4-{9-[(3,5-Bis-trifluoromethyl-benzyl)-(2-methyl-2H-tetrazol-5-yl)-amino]-4-methyl-1,3,6,7,8,9-hexahydro-2-oxa-5-aza-cyclohepta[f]inden-5-ylmethyl}-benzoic acid] | 102% |
| Cc1cc2c(cc1C(F)(F)F)N(CC1CCCC1)CCC[C@@H]2N(Cc1cc(C(F)(F)F)cc(C(F)(F)F)c1)c1nnn(CCO)n1 [Example 27, (S)-2-{5-[(3,5-Bis-trifluoromethyl-benzyl)-(1-cyclopentylmethyl-7-methyl-8-trifluoromethyl-2,3,4,5-tetrahydro-1H-benzo[b]azepin-5-yl)-amino]-tetrazol-2-yl}-ethanol] | 128% |
| CCC(CC)OC(=O)N1CCC[C@H](N(Cc2cc(C(F)(F)F)cc(C(F)(F)F)c2)c2nnn(C)n2)c2cc(C)c(C(F)(F)F)cc21 [Example 18, (S)-5-[(3,5-Bis-trifluoromethyl-benzyl)-(2-methyl-2H-tetrazol-5-yl)-amino]-7-methyl-8-trifluoromethyl-2,3,4,5-tetrahydro-benzo[b]azepine-1-carboxylic acid 1-ethyl-propyl ester] | 105% |
| Cc1cc2c(c(C)c1C(F)(F)F)N(CC1CC1)CCC[C@@H]2N(Cc1cc(C(F)(F)F)cc(C(F)(F)F)c1)c1nnn(C)n1 [Example 148, (S)-(3,5-Bis-trifluoromethyl-benzyl)-(1-cyclopropylmethyl-7,9-dimethyl-8-trifluoromethyl-2,3,4,5-tetrahydro-1H-benzo[b]azepin-5-yl)-(2-methyl-2H-tetrazol-5-yl)-amine] | 224% |
| Cn1nnc(N(Cc2cc(C(F)(F)F)cc(C(F)(F)F)c2)[C@H]2CCCN(CC3CCCC3)c3cc4c(cc32)COC4)n1 [Example 73, (S)-(3,5-Bis-trifluoromethyl-benzyl)-(5-cyclopentylmethyl-3,5,6,7,8,9-hexahydro-1H-2-oxa-5-aza-cyclohepta[f]inden-9-yl)-(2-methyl-2H-tetrazol-5-yl)-amine] | 374% |
| Cc1cc2c(c(C)c1C(F)(F)F)N(C[C@H]1CC[C@H](CC(=O)O)CC1)CCC[C@@H]2N(Cc1cc(Cl)cc(C(F)(F)F)c1)c1nnn(C)n1 [Example 201, (S)-(4-{5-[(3-Chloro-5-trifluoromethyl-benzyl)-(2-methyl-2H-tetrazol-5-yl)-amino]-7,9-dimethyl-8-trifluoromethyl-2,3,4,5-tetrahydro-benzo[b]azepin-1-ylmethyl}-cyclohexyl)-acetic acid] | 147% |
| Cc1cc2c(cc1C(F)(F)F)N(C(=O)OC1CCCC1)CCC[C@@H]2N(Cc1cc(C(F)(F)F)cc(C(F)(F)F)c1)c1nnn(C)n1 [Example 20, (S)-5-[(3,5-Bis-trifluoromethyl-benzyl)-(2-methyl-2H-tetrazol-5-yl)-amino]-7-methyl-8-trifluoromethyl-2,3,4,5-tetrahydro-benzo[b]azepine-1-carboxylic acid cyclopentyl ester] | 72% |
| Cc1c2c(cc3c1N(CC1CCCC1)CCC[C@@H]3N(Cc1cc(C(F)(F)F)cc(C(F)(F)F)c1)c1nnn(C)n1)COC2 [Example 170, (S)-(3,5-Bis-trifluoromethyl-benzyl)-(5-cyclopentylmethyl-4-methyl-3,5,6,7,8,9-hexahydro-1H-2-oxa-5-aza-cyclohepta[f]inden-9-yl)-(2-methyl-2H-tetrazol-5-yl)-amine] | 95% |
| Cc1cc2c(c(C)c1C(F)(F)F)N(C[C@H]1CC[C@H](CC(=O)O)CC1)CCC[C@@H]2N(Cc1cc(C(F)(F)F)cc(C(F)(F)F)c1)c1nnn(C)n1 [Example 153, (S)-(4-{5-[(3,5-Bis-trifluoromethyl-benzyl)-(2-methyl-2H-tetrazol-5-yl)-amino]-7,9-dimethyl-8-trifluoromethyl-2,3,4,5-tetrahydro-benzo[b]azepin-1-ylmethyl}-cyclohexyl)-acetic acid] | 165% |
